{"source": "patent US4788200A", "about": "“Method and composition for treating arteriosclerosis” (MECT Corporation, priority 1986, dated 1988)", "key": {"blood platelets": {"test_system": "blood platelets", "assay": "Anticoagulating function for inhibiting coagulation of blood platelets (aggregometer, PRP, arachidonic acid)", "type": "cell-based, rabbit (White Japanese native species)", "conditions": "for Response (inhibition of coagulation of blood platelets): in vitro, arachidonic acid 50 mcg/ml, rabbit PRP, 37° C., 2 minutes", "procedure": "White Japanese native species male rabbits each having a body weight of from 2.5 to 4.0 kg were used. The state of health of the rabbits was checked by visual examination for such as diarrhea and scabies in the ears, and the number of blood platelets and the hematocrit value of the individual rabbits were determined using the blood taken from the auricular vein of the individual rabbits. Rabbits each having a number of blood platelets of from 30×10^4 to 50×10^4 […] and a hematocrit value of from 30 to 40% were selected and the thus selected rabbits were fed for a pre-breeding period of one week, and then the number of blood platelets and the hematocrit value of the thus bred rabbits were determined again.\nUsing an injection tube treated with silicone, blood was taken from the auricular artery so that the ratio of blood to a 3.8% sodium citrate solution was 9 to 1 by volume, and the content of the tube was subjected to centrifugal separation at 100 to 140 g for 10 minutes. The supernatant was separated as platelet rich plasma (PRP), and the lower phase was further subjected to centrifugal separation at 450 g or 300 g for 10 minutes to obtain a platelet poor plasma (PPP). After subjecting the PRP to centrifugal separation at 800 g for 10 minutes, precipitated blood platelets were rinsed one time with a 5 m MEDTA deprived of Ca^2+ and MG^2+ and Hepes-Tyrode buffer (pH 7.4), and then suspended in Hepes-Tyrode buffer (pH 7.4) to obtain rinsed blood platelets. In the coagulation experiment, the number of blood platelets in PRP was directly counted by the Brecher-Cronkite method to control the same within the range of from 50×10^4 to 70×10^4 /mm^3.\nUsing an aggregometer, PRP was added with each of specimen drugs, followed by incubation at 37° C. for a predetermined time period (2 minutes), and an aggregation provoker (arachidonic acid, 50 mcg/ml) was added and then subjected to measurement.\nThe control drug used was Aspirin."}, "metastasis of cancer": {"test_system": "metastasis of cancer", "conditions": "experiments using animals; cited from earlier work"}, "[1]": {"test_system": "cholesterol content of the blood serum", "assay": "Effect against hyperlipidemia (Demonstration 1): cholesterol content of blood serum", "type": "in vivo, mice", "conditions": "for Reduction Rate of Cholesterol in Blood Serum: mice, oral", "procedure": "(§1) Six mice were bred with high cholesterol-cholic acid feeds for 7 days so as to induce hyperlipidemia; one half of the total dose of each compound (I) as set forth in Table 1 was orally administered at the sixth day and the other half was orally administered at the seventh day. After starving the mice for one night, the cholesterol content of the blood serum of the respective mice was determined. It was judged that the tested compound had the desired activity (of reducing fat content of blood) when the cholesterol content of the blood serum was decreased by 15% or more as compared to that of the mice of the control group."}, "[2]": {"test_system": "lipoproteins precipitated by heparin (corresponding to the fractions of LDL and VLDL)", "assay": "Effect against hyperlipidemia (Demonstration 2): lipoproteins precipitated by heparin (HPL, LDL and VLDL fractions) in blood serum", "type": "in vivo, mice", "conditions": "for Decrease of HPL / HPL/Cholesterol ratio: mice, oral; for HPL/Cholesterol ratio: criterion not more than 0.92", "procedure": "as §1, with “group. Similar experiments were conducted as in Example 2, and it was judged that the tested compound had the desired activity (of reducing fat content in blood) when the content of lipoproteins precipitated by heparin (corresponding to the fractions of LDL and VLDL) in the blood serum of the tested group was decreased by 20% or more as compared to that of the mice of control group. Decrease of atheromic β-LDL or increase of HDL could be estimated when the ratio of lipoproteins precipitated by heparin to cholesterol (HPL/cholesterol) was not more than 0.92.” for “group.”"}, "Test on acute toxicity": {"assay": "Test on acute toxicity", "type": "in vivo, mice", "conditions": "for acute toxicity, changes observed: mice", "procedure": "The compound (I) was administered to mice in an amount of 300 mg/kg orally or abdominally."}}, "data": [{"smiles": "CC(=O)Oc1ccccc1C(=O)O", "note": "[Aspirin, reference compound]", "values": [{"measurement": "Response (inhibition of coagulation of blood platelets)", "setting": "blood platelets; 2.5 γ (μg/ml)", "value": 100}, {"measurement": "effect of inhibiting metastasis of cancer", "setting": "metastasis of cancer", "value": "have the effect of inhibiting metastasis of cancer"}]}, {"smiles": "COc1ccc(-c2nc3sc4ccccc4n3c(=O)c2-c2ccccc2)cc1", "note": "[Compound (I), 2-(p-methoxyphenyl)-3-phenylpyrimido[2,1-b]benzothiazole-4(4H)-one]", "values": [{"measurement": "pharmaceutical efficacy relative to control agent D-thyroxine", "setting": "[1]; from Table 1, fraction of D-thyroxine efficacy", "value": "about 2/5"}, {"measurement": "Reduction Rate of Cholesterol in Blood Serum", "setting": "[1]; 10 mg/kg", "value": 11, "unit": "%"}, {"measurement": "Reduction Rate of Cholesterol in Blood Serum", "setting": "[1]; 25 mg/kg", "value": 16, "unit": "%"}, {"measurement": "pharmaceutical efficacy relative to control agent D-thiroxicine", "setting": "[2]; from Table 2, fraction of D-thiroxicine efficacy", "value": "about 2/5"}, {"measurement": "Decrease of HPL", "setting": "[2]; 10 mg/kg", "value": 17, "unit": "%"}, {"measurement": "Decrease of HPL", "setting": "[2]; 25 mg/kg", "value": 23, "unit": "%"}, {"measurement": "HPL/Cholesterol ratio", "setting": "[2]; 25 mg/kg", "value": 0.92}, {"measurement": "efficacy relative to control drug Aspirin", "setting": "blood platelets; from Table 3", "value": 2.5, "unit": "times"}, {"measurement": "Response (inhibition of coagulation of blood platelets)", "setting": "blood platelets; 1 γ (μg/ml)", "value": 100}, {"measurement": "acute toxicity, changes observed", "setting": "Test on acute toxicity; abdominal, 200 mg/kg", "value": "No changes were observed"}, {"measurement": "acute toxicity, changes observed", "setting": "Test on acute toxicity; oral, 300 mg/kg", "value": "No changes were observed"}, {"measurement": "toxicity on successive administration, changes observed", "setting": "Test on acute toxicity; mouse, in vivo, 100 mg/kg", "value": "no substantial change was observed"}]}, {"smiles": "N[C@H](Cc1cc(I)c(Oc2cc(I)c(O)c(I)c2)c(I)c1)C(=O)O", "note": "[D-thyroxine, reference compound]", "values": [{"measurement": "Reduction Rate of Cholesterol in Blood Serum", "setting": "[1]; 10 mg/kg", "value": 30, "unit": "%"}, {"measurement": "Decrease of HPL", "setting": "[2]; 10 mg/kg", "value": 35, "unit": "%"}, {"measurement": "HPL/Cholesterol ratio", "setting": "[2]; 10 mg/kg", "value": 0.93}]}, {"smiles": "OCCN(CCO)c1nc(N2CCCCC2)c2nc(N(CCO)CCO)nc(N3CCCCC3)c2n1", "note": "[dipyridamol]", "values": [{"measurement": "effect of inhibiting metastasis of cancer", "setting": "metastasis of cancer", "value": "have the effect of inhibiting metastasis of cancer"}]}, {"smiles": "Clc1ccccc1CN1CCc2sccc2C1", "note": "[ticlopidine]", "values": [{"measurement": "effect of inhibiting metastasis of cancer", "setting": "metastasis of cancer", "value": "have the effect of inhibiting metastasis of cancer"}]}]}
